For this assay, the system named is Sclerotinia fructicola. Nature of the assay: Mycelial growth test. The assay is classed as cell-based. The conditions noted are these: Sclerotinia, 72 h, SF, read-out: Percent Fungus Growth Inhibition. The source says:
| SF = Sclerotinia fructicola

In general, inhibition refers to the share of the control response that was lost under treatment. As to `Cc1cc(Cl)c(Oc2nsnc(Cl)c2=O)cc1C` [Compound 58, 3-chloro-5-[(2-chloro-4,5-dimethyl)phenoxy]-4H--1,2,6-thiadiazin-4-one], the inhibition at 5 ppm worked out at 56%, the inhibition at 10 ppm stood at 65%, the inhibition at 20 ppm is 68% and the inhibition at 40 ppm was 71%.

Regarding `Cc1cc(Oc2nsnc(Cl)c2=O)cc(C)c1Cl` [Compound 59, 3-chloro-5-[(4-chloro-3,5-dimethyl)phenoxy]-4H--1,2,6-thiadiazin-4-one], the inhibition at 5 ppm amounted to 71%, the inhibition at 10 ppm worked out at 68%, the inhibition at 20 ppm turned out to be 59% and the inhibition at 40 ppm is 74%.

Turning to `Cc1cc(Oc2nsnc(Cl)c2=O)cc(C)c1Br` [Compound 60, 3-[(4-bromo-3,5-dimethyl)-phenoxy]-5-chloro-4H--1,2,6-thiadiazin-4-one], the inhibition at 5 ppm was determined as 56%, the inhibition at 10 ppm came to 71%, the inhibition at 20 ppm worked out at 65% and the inhibition at 40 ppm was 71%.

With `COc1cc(Oc2nsnc(Cl)c2=O)cc(OC)c1C(C)=O` [Compound 61, 3-[(4-acetyl-3,5-dimethoxy)-phenoxy]-5-chloro-4H--1,2,6-thiadiazin-4-one], the inhibition at 5 ppm was found to be 7%, the inhibition at 10 ppm is 19%, the inhibition at 20 ppm was 59% and the inhibition at 40 ppm was 85%.

The values above are taken from patent US4450269A, “Mono-5-substituted-3-chloro-4H-1,2,6-thiadiazin-4-one antifungal agents” (FMC Corporation, priority 1980, dated 1984).
